From the RepoRT retention time repository come the findings set out here.

This data set in a line: RP, Advanced Chromatography Technologies ACE C18, 50 × 2.1 mm, 3 µm; A: water + 10 mM ammonium acetate; B: acetonitrile; gradient (min/%B) 0/5 1/5 21/95. Conditions: stereoisomer not certain.
As to `CC(C)(c1ccccc1)c1cc(-n2nc3ccccc3n2)c(O)c(C(C)(C)c2ccccc2)c1`, the LC retention time is 19.4 min.

Regarding `c1ccc2n[nH]nc2c1` [1-H-benzotriazole], the LC retention time turned out to be 3.14 min.

With `Nc1c(Cl)cc([N+](=O)[O-])cc1Cl` [2,6-dichloro-4-nitroaniline], the LC retention time came to 9.41 min.

With `c1ccc2sc(SSc3nc4ccccc4s3)nc2c1` [2-2'-dithiobisbenzothiazole], the LC retention time is 14.6 min.

Turning to `CC(C)(C)c1cc(-n2nc3ccc(Cl)cc3n2)c(O)c(C(C)(C)C)c1` [2-4-di-tert-butyl-6-(5-chlorobenzotriazol-2-yl)phenol], the LC retention time was found to be 20.7 min.

As to `Nc1ccc([N+](=O)[O-])cc1[N+](=O)[O-]` [2-4-dinitroaniline], the LC retention time amounted to 7.02 min.

For `CCC(C)(C)c1cc(-n2nc3ccccc3n2)c(O)c(C(C)(C)CC)c1` [2-(2H-benzotriazol-2-yl)-4-6-di-tert-pentylphenol], the LC retention time was found to be 20.8 min.

With `Cc1ccc(O)c(-n2nc3ccccc3n2)c1` [2-(benzotriazol-2-yl)-4-methylphenol], the LC retention time was found to be 13.3 min.

With `Nc1c(Br)cc([N+](=O)[O-])cc1[N+](=O)[O-]` [2-bromo-4,6-dinitroaniline], the LC retention time was 8.73 min.

In the case of `CSc1nc2ccccc2s1` [2-methylthiobenzothiazole], the LC retention time is 9.58 min.

On to `Cc1cc2n[nH]nc2cc1C` [5-6-Dimethyl-2H-benzotriazole], for which the LC retention time worked out at 5.73 min.

Regarding `Cc1ccc2n[nH]nc2c1` [5-Methyl-1H-benzotriazole], the LC retention time was 4.65 min.

Consider `Nc1c(Cl)cc([N+](=O)[O-])cc1[N+](=O)[O-]` [6-chloro-2-4-dinitroaniline], for which the LC retention time amounted to 8.9 min.

As to `c1ccc2scnc2c1` [Benzothiazole], the LC retention time was 5.38 min.

In the case of `CC(C)COC(=O)c1ccccc1C(=O)OCC(C)C` [Diisobutyl phthalate], the LC retention time is 14 min.

On to `c1ccc2sc(SNC3CCCCC3)nc2c1` [N-cyclohexyl-2-benzothiazolesulphenamide], for which the LC retention time came to 13.7 min.

On to `c1ccc2ncccc2c1` [Quinoline], for which the LC retention time amounted to 6.1 min.
